This passage reports MBC and MIC results from paper PMC8016998, “Identification of potential therapeutic antimicrobial peptides against Acinetobacter baumannii in a mouse model of pneumonia” (Scientific Reports, 2021).

Converted amounts (≈) assume the structure as drawn. No end group written: not given here. Some results are limits rather than exact numbers.

Test [1] has as its system Acinetobacter baumannii 17,978. The format is cell-based. Conditions: 17,978, 24 h.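 Further: CLSI broth microdilution in 96-well polypropylene plates, MBC taken as lowest concentration giving no growth when clear wells were subcultured on LB agar for 24 h at 37 °C.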
In test [2] the test system is Acinetobacter baumannii 19,606. It is filed as cell-based. Conditions: 19,606, 24 h.
For another test, the system named is MDRAB strain BF50. The format is cell-based, Acinetobacter baumannii. Conditions: 24 h. The method, then: (§1) All AMPs and TP4 derivatives used in this study were synthesized by Kelowna International Scientific Inc. (Taipei City, Taiwan) with more than 95% purity, and their molecular weights were verified by mass spectrum analysis. MBC were determined by extending the MIC procedure in sterilized 96-well polypropylene microtiter plates according to the broth microdilution guidelines of the Clinical and Laboratory Standards Institute with some modification. Briefly, 5 × 10^5 CFU/mL of bacteria were inoculated in LB medium containing AMPs or antibiotic at final concentrations ranging from 512 to 1 μg/mL (from serial twofold dilutions). After incubation for 24 h at 37 °C, the lowest concentration showing no visible growth was used as the MIC value. In addition, 10 µL was drawn from each well with no visible turbidity onto LB agar plates and incubated for 24 h at 37 °C. The lowest concentration showing no visible growth on agar subculture was used as the MBC value. All experiments were performed in triplicate.

The test system of another test is MDRAB strain MO91. The format is cell-based, Acinetobacter baumannii. Conditions: 24 h. The method, then: as §1

Usually MBC stands for the smallest concentration meeting the test's criterion for killing. What is called MIC is the lowest concentration found to suppress growth. Low values mean inhibition by little substance, high ones a need for much substance. On to “FIHHIIGGLFSAGKAEHRLIRRRRR [Peptide I16E]”, for which the MBC (in test [1]; in test [2]; against MDRAB strain BF50; against MDRAB strain MO91) was > 256 µg/mL in each case. Also, the MIC (in test [1]; in test [2]; in the test on MDRAB strain BF50; in the test on MDRAB strain MO91) was > 256 µg/mL each time.

With FIAAIIGGLFSAGKAIHRLIRRRRR [H3A/H4A], the MBC was 128 µg/mL in test [1], 64 µg/mL in test [2], 128 µg/mL against MDRAB strain BF50 and 256 µg/mL in the test on MDRAB strain MO91. In addition, the MIC (in test [1]; in test [2]; against MDRAB strain BF50; with MDRAB strain MO91) was 64 µg/mL throughout.

As for FIHHIIGGAASAGKAIHRLIRRRRR [L9A/F10A], the MBC in test [1] was found to be 64 µg/mL; in test [2], 128 µg/mL; with MDRAB strain BF50, 64 µg/mL; against MDRAB strain MO91 it was 128 µg/mL. Besides, the minimal inhibitory concentration (MIC) came out at 64 µg/mL in test [1], 64 µg/mL in test [2], 64 µg/mL against MDRAB strain BF50 and 128 µg/mL against MDRAB strain MO91.

Consider AAHHIIGGLFSAGKAIHRLIRRRRR [F1A/I2A], for which the minimal bactericidal concentration (MBC) in test [1] stood at 32 µg/mL; in test [2] it was 16 µg/mL; in the test with MDRAB strain BF50 it was 32 µg/mL; with MDRAB strain MO91, 32 µg/mL. The MIC in test [1] came out at 32 µg/mL; in test [2], 16 µg/mL; in the test with MDRAB strain BF50 it was 16 µg/mL; with MDRAB strain MO91, 32 µg/mL.

With `CC[C@H](C)[C@H](NC(=O)[C@H](CO)NC(=O)[C@H](Cc1ccccc1)NC(=O)[C@H](CC(C)C)NC(=O)CNC(=O)CNC(=O)[C@@H](NC(=O)[C@@H](NC(=O)[C@H](Cc1c[nH]cn1)NC(=O)[C@H](Cc1c[nH]cn1)NC(=O)[C@@H](NC(=O)[C@@H](N)Cc1ccccc1)[C@@H](C)CC)[C@@H](C)CC)[C@@H](C)CC)C(=O)NCC(=O)N[C@@H](CCCCN)C(=O)N[C@H](C(=O)N[C@H](C(=O)N[C@@H](Cc1c[nH]cn1)C(=O)N[C@@H](CCCNC(=N)N)C(=O)N[C@@H](CC(C)C)C(=O)N[C@H](C(=O)N[C@@H](CCCNC(=N)N)C(=O)N[C@@H](CCCNC(=N)N)C(=O)N[C@@H](CCCNC(=N)N)C(=O)N[C@@H](CCCNC(=N)N)C(=O)N[C@@H](CCCNC(=N)N)C(=O)O)[C@@H](C)CC)[C@@H](C)CC)[C@@H](C)CC` [A12I/A15I], the MBC in test [1] stood at 64 µg/mL (≈ 20.9 µM); in test [2], 128 µg/mL (≈ 41.8 µM); in the test on MDRAB strain BF50 it was 128 µg/mL (≈ 41.8 µM); with MDRAB strain MO91, 128 µg/mL (≈ 41.8 µM). In addition, the MIC in test [1] amounted to 64 µg/mL (≈ 20.9 µM); in test [2] it was 32 µg/mL (≈ 10.4 µM); in the test on MDRAB strain BF50, 64 µg/mL (≈ 20.9 µM); with MDRAB strain MO91, 32 µg/mL (≈ 10.4 µM).

As for “FIHHIIGGLFSAGKARHRLIRRRRR [Peptide I16R]”, the MBC was 128 µg/mL in test [1], 64 µg/mL in test [2], 128 µg/mL in the test on MDRAB strain BF50 and 256 µg/mL in the test with MDRAB strain MO91. For the same molecule, the MIC in test [1] stood at 128 µg/mL; in test [2], 64 µg/mL; against MDRAB strain BF50 it was 64 µg/mL; in the test with MDRAB strain MO91 it was 64 µg/mL.

Consider FIHHIIGGLFSAGKAIHRHHRRRRR [L19H/I20H], for which the MBC is 32 µg/mL in test [1], 64 µg/mL in test [2], 32 µg/mL in the test on MDRAB strain BF50 and 32 µg/mL in the test on MDRAB strain MO91. For the same molecule, the MIC in test [1] is 32 µg/mL; in test [2], 64 µg/mL; against MDRAB strain BF50 it was 32 µg/mL; against MDRAB strain MO91, 32 µg/mL.

Regarding FIHHIIGGLFSVGKHIHRLIRRRRR [A12V/A15H], the MBC in test [1] is 32 µg/mL; in test [2], 32 µg/mL; against MDRAB strain BF50 it was 128 µg/mL; in the test with MDRAB strain MO91, 256 µg/mL. Also, the MIC (in test [1]; in test [2]; with MDRAB strain BF50; with MDRAB strain MO91) was 16 µg/mL each time.
